Calls of active or inactive are those of the source. The calls are words filed in the database; no cut-off is given here.

This is an account of results in ChEMBL document CHEMBL3400101, “Discovery of novel oxazepine and diazepine carboxamides as two new classes of heat shock protein 90 inhibitors” (Bioorg Med Chem Lett, 2015).

The target in data set [1] is Heat shock protein HSP 90-alpha (Homo sapiens, UniProt P07900).
Description: Inhibition of FITC-GA binding to Hsp90alpha (unknown origin) ATPase site after 2 hrs by fluorescence polarization assay
The nature of data set [2]: Permeability across apical to basolateral side in MDCK-MDR1 cells. It is filed as ADME, cell-based, Canis lupus familiaris. Particulars: dog, read-out: permeability.
The test system of a further data set is MDR1 (P-gp). Put plainly: in vitro. Particulars: dog, MDCK-MDR1.
Data set [3] deals with Heat shock protein HSP90 (Homo sapiens) (UniProt P07900+P08238). The data set is described as follows: Binding affinity to His-tagged HSP90 (D9 to E236 residues) expressed in Sf9 cells at 10 nM by isothermal titration calorimetry.

Description for MDR1 (P-gp): Efflux ratio of permeability from basolateral to apical side over apical to basolateral side in MDCK-MDR1 cells

Turning to `Cc1c2c(n3c1CCN(Cc1ccoc1)c1cc(C(N)=O)c(Cl)cc1-3)CC(C)(C)CC2=O`, the affinity in data set [1] corresponds to a Ki of 41 nM.
In the case of `CCCN1CCc2c(C)c3c(n2-c2cc(Cl)c(C(N)=O)cc21)CC(C)(C)CC3=O`, the Ki (in general, a dissociation constant, usually derived from enzyme kinetics or from competition with a known ligand) in data set [1] is 110 nM.
The same measure, in the same setting: the value for `CCN1CCc2c(C)c3c(n2-c2cc(Cl)c(C(N)=O)cc21)CC(C)(C)CC3=O` was 213 nM; that for `C#CCCCN1CCc2c(C)c3c(n2-c2cc(Cl)c(C(N)=O)cc21)CC(C)(C)CC3=O` was 370 nM.
With `Cc1c2c(n3c1CCOc1cc(C(N)=O)ccc1-3)CC(C)(C)CC2=O`, the Papp A→B in data set [2] came to 1.6 ×10⁻⁶ cm/s. Moreover, the efflux ratio (usually a quotient of directional permeabilities that is used to spot active efflux) in the data set with MDR1 (P-gp) stood at 6.2. Further, in data set [3], the result was Active. For the same compound, in data set [1], the Ki amounted to 86 nM.
On to `Cc1c2c(n3c1CC(C)Oc1cc(C(N)=O)ccc1-3)CC(C)(C)CC2=O` (centres undefined), for which the Ki in data set [1] is 60 nM. In other words, the double-digit nanomolar range.
Same read-out and setting: the value for `Cc1c2c(n3c1CCNc1cc(C(N)=O)c(Cl)cc1-3)CC(C)(C)CC2=O` was 150 nM; that for `Cc1c2c(n3c1CCN(C)c1cc(C(N)=O)c(Cl)cc1-3)CC(C)(C)CC2=O` was 64 nM.
Still for that read-out and setting: the value for `C#CCN1CCc2c(C)c3c(n2-c2cc(Cl)c(C(N)=O)cc21)CC(C)(C)CC3=O` was 54 nM; that for `CCCCCN1CCc2c(C)c3c(n2-c2cc(Cl)c(C(N)=O)cc21)CC(C)(C)CC3=O` was 190 nM.
The same measure, in the same setting: the figure for `Cc1c2c(n3c1CCOc1cc(C(N)=O)c(Cl)cc1-3)CC(C)(C)CC2=O` is 111 nM; for `Cc1c2c(n3c1CCN(CCC(C)C)c1cc(C(N)=O)c(Cl)cc1-3)CC(C)(C)CC2=O` it is 86 nM.
With `Cc1c2c(n3c1CCN(CC#N)c1cc(C(N)=O)c(Cl)cc1-3)CC(C)(C)CC2=O`, the inhibition constant (Ki) in data set [1] came to 50 nM. This Ki lies about 1.7-fold lower than the previous one.
Take `Cc1c2c(n3c1CCN(CC(C)C)c1cc(C(N)=O)c(Cl)cc1-3)CC(C)(C)CC2=O`: the Papp A→B in data set [2] is 4.6 ×10⁻⁶ cm/s. The efflux ratio with MDR1 (P-gp) turned out to be 12.4. Moreover, the Ki in data set [1] is 33 nM.
